The text below walks through data of ChEMBL document CHEMBL1926527, “Pharmacophore insights into rpoB gene mutations in Mycobacterium tuberculosis rifampicin resistant isolates” (2012).

What all share (format): functional
Experiment [1] relates to Mycobacterium tuberculosis. Nature of the experiment: Antimycobacterial activity against Mycobacterium tuberculosis H37Rv ATCC 27294 expressing wild-type rpoB gene by resazurin microtiter assay. A general note: Alamar Blue is a resazurin reagent that responds to reducing activity.
Experiment [2] has as its system Mycobacterium tuberculosis. Nature of the experiment: Antimycobacterial activity against Mycobacterium tuberculosis isolate 359 expressing wild-type rpoB gene by resazurin microtiter assay.
In experiment [3] the test system is Mycobacterium tuberculosis. Nature of the experiment: Antimycobacterial activity against Mycobacterium tuberculosis isolate 353 expressing wild-type rpoB gene by resazurin microtiter assay.
Experiment [4] has as its system Mycobacterium tuberculosis. Nature of the experiment: Antimycobacterial activity against Mycobacterium tuberculosis isolate MA03 expressing wild-type rpoB gene by resazurin microtiter assay.
Experiment [5] has as its system Mycobacterium tuberculosis. Nature of the experiment: Antimycobacterial activity against Mycobacterium tuberculosis isolate 361 expressing wild-type rpoB gene by resazurin microtiter assay.

In brackets after ≈: the same amount, converted by molar mass.

As usually defined, the MIC is the least concentration at which growth counts as inhibited. As for `CO[C@H]1/C=C/O[C@@]2(C)Oc3c(C)c(O)c4c(c3C2=O)C2=NC3(CCN(CC(C)C)CC3)N(C(C)=O)C2=C(NC(=O)/C(C)=C\C=C\[C@H](C)[C@H](O)[C@@H](C)[C@@H](O)[C@@H](C)[C@H](OC(C)=O)[C@@H]1C)C4=O`, the MIC was 0.06 µg/mL (≈ 0.0675 µM) in experiment [1]; less than 0.06 µg/mL in experiment [2]; 0.12 µg/mL (≈ 0.135 µM) in experiment [3]; less than 0.06 µg/mL in experiment [4]; less than 0.06 µg/mL in experiment [5].

Turning to `CO[C@H]1/C=C/O[C@@]2(C)Oc3c(C)c(O)c4c(c3C2=O)C2=NC3(CCN(CC(C)C)CC3)NC2=C(NC(=O)/C(C)=C\C=C\[C@H](C)[C@H](O)[C@@H](C)[C@@H](O)[C@@H](C)[C@H](O)[C@@H]1C)C4=O`, the MIC in experiment [1] was 0.06 µg/mL (≈ 0.0745 µM); in experiment [2] it was less than 0.06 µg/mL; in experiment [3], more than 2 µg/mL; in experiment [4], less than 0.06 µg/mL; in experiment [5], less than 0.06 µg/mL.

On to `CCCCCCCCCCCCCCCC(=O)N1C2=C3NC(=O)/C(C)=C\C=C\[C@H](C)[C@H](O)[C@@H](C)[C@@H](O)[C@@H](C)[C@H](OC(C)=O)[C@H](C)[C@@H](OC)/C=C/O[C@@]4(C)Oc5c(C)c(O)c(c(c5C4=O)C2=NC12CCN(CC(C)C)CC2)C3=O`, for which the MIC in experiment [1] was 0.06 µg/mL (≈ 0.0553 µM); in experiment [2] it was less than 0.06 µg/mL; in experiment [3], more than 2 µg/mL; in experiment [4], less than 0.06 µg/mL; in experiment [5], less than 0.06 µg/mL.

Consider `C=CCCCCCCCCC(=O)N1C2=C3NC(=O)/C(C)=C\C=C\[C@H](C)[C@H](O)[C@@H](C)[C@@H](O)[C@@H](C)[C@H](OC(C)=O)[C@H](C)[C@@H](OC)/C=C/O[C@@]4(C)Oc5c(C)c(O)c(c(c5C4=O)C2=NC12CCN(CC(C)C)CC2)C3=O`, for which the MIC in experiment [1] is 0.06 µg/mL (≈ 0.0592 µM); in experiment [2], less than 0.06 µg/mL; in experiment [3], more than 2 µg/mL; in experiment [4] it was less than 0.06 µg/mL; in experiment [5] it was less than 0.06 µg/mL.

Regarding `CO[C@H]1/C=C/O[C@@]2(C)Oc3c(C)c(O)c4c(c3[C@H]2O)C2=NC3(CCN(CC(C)C)CC3)NC2=C(NC(=O)/C(C)=C\C=C\[C@H](C)[C@H](O)[C@@H](C)[C@@H](O)[C@@H](C)[C@H](O)[C@@H]1C)C4=O`, the MIC in experiment [1] is 0.06 µg/mL (≈ 0.0743 µM); in experiment [2], 0.25 µg/mL (≈ 0.31 µM); in experiment [3] it was 2 µg/mL (≈ 2.48 µM); in experiment [4], less than 0.06 µg/mL; in experiment [5], 0.12 µg/mL (≈ 0.149 µM).

`CO[C@H]1/C=C/O[C@@]2(C)Oc3c(C)c(O)c4c(c3[C@H]2O)C2=NC3(CCN(CC(C)C)CC3)N(C(C)=O)C2=C(NC(=O)/C(C)=C\C=C\[C@H](C)[C@H](O)[C@@H](C)[C@@H](O)[C@@H](C)[C@H](OC(C)=O)[C@@H]1C)C4=O`: the MIC in experiment [1] is 0.06 µg/mL (≈ 0.0673 µM); in experiment [2], less than 0.06 µg/mL; in experiment [3], more than 2 µg/mL; in experiment [4], less than 0.06 µg/mL; in experiment [5], less than 0.06 µg/mL.

Regarding `CO[C@H]1/C=C/O[C@@]2(C)Oc3c(C)c(O)c4c(c3C2=O)C2=NC3(CCN(CC(C)C)CC3)NC2=C(NC(=O)/C(C)=C\C=C\[C@H](C)[C@H](O)[C@@H](C)[C@@H](O)[C@@H](C)[C@H](OC(C)=O)[C@@H]1C)C4=O` [RIFABUTIN], the MIC in experiment [1] is 0.06 µg/mL (≈ 0.0708 µM); in experiment [2], less than 0.06 µg/mL; in experiment [3], 0.12 µg/mL (≈ 0.142 µM); in experiment [4], less than 0.06 µg/mL; in experiment [5] it was less than 0.06 µg/mL.

Take `CO[C@H]1/C=C/O[C@@]2(C)Oc3c(C)c(O)c4c(O)c(c(/C=N/N5CCN(C)CC5)c(O)c4c3C2=O)NC(=O)/C(C)=C\C=C\[C@H](C)[C@H](O)[C@@H](C)[C@@H](O)[C@@H](C)[C@H](OC(C)=O)[C@@H]1C` [RIFAMPIN]: the MIC in experiment [1] was 0.06 µg/mL (≈ 0.0729 µM); in experiment [2], 0.12 µg/mL (≈ 0.146 µM); in experiment [3], more than 2 µg/mL; in experiment [4], less than 0.06 µg/mL; in experiment [5], less than 0.06 µg/mL.
